“Also recorded” adds a separate entry of the source.

This note sets out measurements from patent publication US20250170252A1, “QUINONE PROTECTED FORMS AND CONJUGATES” (CAMBRIDGE ENTERPRISE LIMITED, priority 2022, published 2025).

Series [1] can be described thus: In vitro redox-cycling ability, phenol red/horseradish peroxidase assay. In kind it is biochemical. Particulars: HRP/phenol-red reporter assay, absorbance at 610 nm; up to 25 μM. As to the method: In vitro redox cycling capability of compounds was assessed by phenol red/horseradish peroxidase (HRP) assay by adaption of a previously described protocol (Assay Drug Dev. Technol., 2008, 6, 505-518). Briefly, stocks were prepared as follows: (1) DTT to a concentration of 2.4 μM in PBS pH 7.4 buffer; (2) compound stocks in PBS pH 7.4 buffer to 3× the desired concentration by 1000× dilution of DMSO stocks; (3) a stock of phenol-red-HRP detection reagent containing 300 μg/mL phenol red and 180 μg/mL HRP enzyme in PBS pH 7.4 buffer; (4) a stock of 1 M NaOH in water; (5) a stock of 100 μM H2O2 in PBS prepared by addition of a 30% solution of H2O2 in water into 1000 μL of PBS. Into each well of a 96 well clear flat-bottomed plate was then added 40 μL of compound stock in PBS followed by 40 μL of DTT stock, followed immediately by 40 μL of phenol-red-HRP reagent. A positive control with 100 μM H2O2 added in place of compound was included. The plate was incubated in the dark at room temperature for 15 min. Following this 20 μL of 1 M NaOH was added to each well to terminate the reaction. Absorbance was immediately measured at 610 nm (MiniMax i3x Imager, Molecular Devices). Absorbance of treated wells was normalised to control wells treated with PBS only (zero redox cycling). All readings were performed in triplicate and error bars display standard error of the mean.

Series [2] has as its system ovine blood. Briefly: Methaemoglobin analysis in sheep's blood. Particulars: in vitro ovine blood model, 1 h incubation, absorbance at 630 nm. In kind it is cell-based. On the procedure: Defibrinated Oxoid™ sheep's blood (ThermoScientific) was diluted to a 5% v/v suspension in PBS pH 7.4. In a 96 well microtiter plate, 150 μL of blood suspension was added to 50 μL of serially diluted compound in PBS containing a 4× stock of each compound of interest. Serial dilution of compounds from DMSO stocks into PBS was performed to achieve an in-plate DMSO concentration of 0.1%. PBS buffer alone was used as a negative control. Three replicates were performed for each compound concentration analysed. The plate was incubated for the specified time at 37° C. The plate was then centrifuged at 3,500 rpm for 5 min. The supernatant was removed and cells lysed by resuspension in 100 μL of a solution of Triton-X-100 (1%) in PBS. Following this 80 μL of lysed cell contents were transferred to a second microtiter plate for UV measurement. To determine methaemoglobin increase, UV absorbance was measured immediately at 630 nm (MiniMax i3x Imager, Molecular Devices). Methaemoglobin increase was determined by (A630−A^0630)/(A^0630)×100, where A630 is the absorbance of the test well at 630 nm, and A^0630 is the absorbance of the negative control at 630 nm. Mean values and standard error of the mean of three independent replicates are plotted.

For series [3], the system named is ovine blood. As to the kind of experiment: Haemolysis in in vitro ovine blood model. In kind it is cell-based, sheep. Particulars: compared with β-lapachone 1.
For series [4], the system named is HL-60 cells. As to the kind of experiment: N-acetyl cysteine cytotoxicity assay. Conditions: HL-60. In kind it is cell-based. As to the method: For assays involving cytotoxicity of β-lapachone derivatives with and without antioxidant N—-acetyl cysteine, HL-60 cells were plated into 24 well plates at a concentration of 2.5×10^5 cells/mL in 450 μL. To each well was then added 25 μL of drug diluted in PBS to obtain the correct in-plate drug concentration, and 25 μL of PBS or a stock of N-acetyl cysteine at 12 mM in PBS. DMSO was maintained at an in-plate concentration of 0.1%. After 96 h incubation, toxicity was assessed by counting of live cells using the Trypan Blue exclusion method with a Countess II Automated Cell Counter (ThermoFisher Scientific) according to the manufacturer's instructions. Cell viability was determined by division of average live cell number of treated wells by average live cell number for control wells treated with 0.1% DMSO. […] Values recorded are the mean of three repeat wells, with error bars representing the standard error of the mean for each concentration tested.

Series [5] deals with range of cancer cell lines, including leukaemia, breast, colon, and cervical cancer. Briefly: Toxicity to a range of cancer cell lines (panel). Particulars: relative to parent drug 1. The class given is cell-based. As to the method: Assays assessing cytotoxicity of β-lapachone and derivatives were performed by CellTiter-Blue assay (Promega) according to the manufacturer's instructions. Briefly, adherent cancer-cell lines were plated at 20,000 cells/well in 96 well plates or suspension cell lines were plated at a concentration of 2×10^5 cells/mL in 24 well plates. Compound stocks in media were made by dilution of DMSO stocks containing the compound of interest to obtain a final in-plate DMSO concentration of only 0.1%. Incubation was performed for 48 h. Following incubation, media was replaced with media containing CellTiter-Blue (Promega) in 1:10 dilution and the plates were incubated for 1.5-4 h. The fluorescence of the plates was recorded (excitation 555 nm, emission 585 nm, […] Reader, Molecular Devices). Cell viability was calculated by division of the fluorescence intensity of treated wells by that of the calculated average fluorescence intensity of replicate negative control wells containing cells with 0.1% DMSO only. Values and reported error bars represent the mean and standard error of the mean of three triplicate repeats for each concentration tested.

In series [6] the test system is HL-60 cells. Briefly: Cellular ROS detection with DCFH-DA. Particulars: HL-60, 2′,7′-dichlorodihydrofluorescein diacetate. In kind it is cell-based. On the procedure: To determine ROS generation by compounds in leukaemia cells, HL-60 cells were washed with PBS, then incubated in serum free media (10 mL of 1.6×10^6/mL cell concentration) with 2,7-dichlorofluorescin diacetate (DCFH-DA) at 20 μM for 30 min at 37° C. Following this, the cells were washed with PBS and resuspended in Fluorbrite-DMEM media (ThermoFisher) (10 mL). 450 μL of the cell mixture was seeded into wells of a clear flat bottomed 12 well plate, to which 50 μL of a 10× stock of the compounds in media had been already added, to achieve a final compound concentration of 50 μM. The 10× media stocks were made by 100-fold dilution of DMSO compound stocks, to ensure a final in-plate DMSO concentration of 0.1%. DMSO 0.1% only was used as a negative control. H2O2 was used as a positive control, for which 10 μL of a 30% aqueous solution was dissolved into 1 mL DMSO, then diluted 100-fold into media for plating, to give a final H2O2 concentration of […]. After plating the cells were immediately incubated at 37° C. in the dark for 15 min before the fluorescence of the wells (excitation 485 nm, emission 535 nm) was recorded (MiniMax i3x Imager, Molecular Devices). Values recorded are the mean of three repeat wells, with error bars representing the standard error of the mean.

For series [7], the system named is HL-60 cells. Briefly: Lysosomal inhibition assay with small molecule prodrugs. In kind it is cell-based. Conditions: HL-60, compared with untreated. On the procedure: Assays to assess the effect of lysosomal activity on prodrugs were performed as follows: HL-60 cells were plated into 96 well plates at a concentration of 2.5×10^5 cells/mL in 180 μL media. Cells were treated with 10 μL of a stock of NH4Cl in PBS (to obtain an in-plate concentration of 3 or 30 mM), 10 μL of a dilution of a DMSO stock of E64d in PBS (to obtain an in-plate concentration of 30 μM), PBS only, or a dilution of DMSO in PBS. Cells were incubated for 30 min. Following this, 10 μL of a stock of test compound made by dilution of a DMSO stock into media was added. DMSO was present in-plate at a maximum of 0.2%. Cells were incubated overnight for 16 h. Following incubation, media was replaced with media containing CellTiter-Blue (Promega) in 1:4 dilution and the plates were incubated for 6 h. The fluorescence of the plates was recorded (excitation 555 nm, emission 585 nm, MiniMax i3x Reader, Molecular Devices). Cell viability was calculated by division of the fluorescence intensity of treated wells by that of the calculated average fluorescence intensity of the relevant negative control wells. Values and reported error bars represent the mean and standard error of the mean of three triplicate repeats for each concentration tested.

Another series concerns MOLM-13. Briefly: Viability assay with small molecule prodrugs, Trypan Blue exclusion, MOLM-13. The class given is cell-based. Conditions: MOLM-13. As to the method: (§1) For assays assessing cytotoxicity of β-lapachone versus small molecule dipeptide prodrugs, suspension cells were plated into 24 well plates at a density of 2.5×10^5 cells/mL in 240 μL. Serial dilutions of compound were made up in PBS. 60 μL of each stock of either PBS, or compound in PBS was added to the cells to achieve the desired final concentration. After the specified incubation time, toxicity was assessed by counting of live cells using the Trypan Blue exclusion method with a Countess II Automated Cell Counter (ThermoFisher Scientific) according to the manufacturer's instructions. Cell viability was determined by division of average live cell number of treated wells by average live cell number for control wells treated with PBS only. Values recorded are the mean of three repeat wells, with error bars representing the standard error of the mean for each concentration tested. IC50 values were calculated using GraphPad Prism software.

The next series concerns HL-60. As to the kind of experiment: Viability assay with small molecule prodrugs, Trypan Blue exclusion, HL-60. The class given is cell-based. On the procedure:
as §1

For the compound `CC1(C)CCC2=C(O1)c1ccccc1C(O)(Cc1ccccc1)C2=O` (stereo not drawn) [Compound 24, 6-benzyl-6-hydroxy-2,2-dimethyl-2,3,4,6-tetrahydro-5H-benzo[h]chromen-5-one], in series [1], the “redox activity (in vitro redox-cycling capability)” value is given as “no measurable redox activity; also recorded: non-redox active”. Moreover, the methaemoglobin formation entry in the series on ovine blood [2] was “did not occur”. Also, the haemolysis of haemoglobin result in the series with ovine blood [3] was “lower”. Moreover, the “change of IC50 upon NAC addition” value in the series on HL-60 cells [4] was “unchanged”. For the same compound, the decrease in toxicity in series [5] was over 20 fold. In addition, the ROS generation result in the series on HL-60 cells [6] is listed as “did not generate detectable ROS”.
On to `CC1(C)CCc2c3c(c4ccccc4c2O1)OCCO3` [Compound 25, 7,7-dimethyl-2,3,5,6-tetrahydro-1,4,8-trioxatriphenylene, reference compound], for which, in series [1], the “redox activity (in vitro redox-cycling capability)” value was “no measurable redox activity”. Besides, the methaemoglobin formation result in the series with ovine blood [2] is “did not occur”. In the series with ovine blood [3], the haemolysis of haemoglobin entry was “lower”.
`CC(C)[C@H](NC(=O)OCc1ccccc1)C(=O)N[C@@H](CCCNC(N)=O)C(=O)Nc1ccc(CC2(O)C(=O)C3=C(OC(C)(C)CC3)c3ccccc32)cc1` (stereo partly drawn) [Compound 26, Cbz-Val-Cit-para-aminobenzyl β-lapa-ketol]: the “toxicity after lysosomal deacidification (NH4Cl) or inhibition (E64d)” value in the series with HL-60 cells [7] was “less toxic”. The “IC50 relative to 1” value in the series on MOLM-13 and in the series with HL-60 was 10 fold each time.
